In ChEMBL document CHEMBL1128145, “N-(carbobenzyloxy)isatin: A slow binding -keto lactam inhibitor of -chymotrypsin” (Bioorg Med Chem Lett, 1995):

Experiments:
Chymotrypsinogen B [1] = target: T1, Chymotrypsinogen B (Homo sapiens, UniProt P17538); assay: Inhibition constant against alpha-chymotrypsin
Chymotrypsinogen B [2] = target: T1, Chymotrypsinogen B
Description: (§1) Rate constant against alpha-chymotrypsin

Chymotrypsinogen B [3] = target: T1, Chymotrypsinogen B; remark: listed apart in the source
Description: as §1

Chymotrypsinogen B [4] = target: T1, Chymotrypsinogen B; remark: listed apart in the source
Description: Rate constant against Alpha-chymotrypsin from time dependent inhibition and reactivation data

Chymotrypsinogen B [5] = target: T1, Chymotrypsinogen B; remark: listed apart in the source
Description: Rate constant against alpha-chymotrypsin from time dependent inhibition and reactivation data

Chymotrypsinogen B [6] = target: T1, Chymotrypsinogen B; assay: Inhibition constant against Alpha-chymotrypsin inhibitor was determined

T1 sequence (P17538 34-164 limits assumed, other chains not shown): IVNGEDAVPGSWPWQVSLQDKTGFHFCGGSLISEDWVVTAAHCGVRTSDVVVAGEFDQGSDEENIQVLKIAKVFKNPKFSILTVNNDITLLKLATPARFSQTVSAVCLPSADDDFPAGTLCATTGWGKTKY
T1 sequence (P17538 167-263 limits assumed, other chains not shown): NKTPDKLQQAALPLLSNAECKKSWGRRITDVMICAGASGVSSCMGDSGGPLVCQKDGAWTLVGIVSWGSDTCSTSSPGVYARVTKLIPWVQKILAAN

Row | Ki (Chymotrypsinogen B [1]) | k off (Chymotrypsinogen B [2]) | k on (Chymotrypsinogen B [3]) | k on (Chymotrypsinogen B [4]) | k off (Chymotrypsinogen B [5]) | Ki (Chymotrypsinogen B [6]) | SMILES
1 | 3.8 µM | 0.00095 s⁻¹ | 254 M⁻¹ s⁻¹ | 7.63 M⁻¹ s⁻¹ | 4.01e-05 s⁻¹ |  | O=C1C(=O)N(C(=O)OCc2ccccc2)c2ccccc21
2 |  |  |  |  |  | > 2 mM | CC(C)(C)OC(=O)N1C(=O)C(=O)c2ccccc21
